Paper PMC12406255, “Engineering Peptide Modulators for T‑Cell Migration by Structural Scaffold Matching” (Journal of Medicinal Chemistry, 2025)
Like-named read-outs stand apart in the source and are kept apart here. Positions of bridges follow the written chain, without caps; N, C: chain ends. Non-standard residues stand in square brackets, D forms with d. Residues, ends and D or L forms follow the SMILES beside them. Nle = CCCC[C@H](N)C(=O)O

How the values were obtained:
CD3+ lymphocytes = assay: cells; assay type: cell-based, human; conditions: for % Inhibition of cell migration compared to control, CD3+: normalized to untreated control, mean ± SEM of 4-6 experiments
Protocol: 1 Transwell-based migration assay to study lymphocyte transendothelial migration. (A) The general principle of the transwell migration assay is depicted. Endothelial cells (EC) are seeded in transwell inserts and are incubated for 2 days to form an EC monolayer. On the day before the assay, the ECs are cytokine-stimulated to induce the expression of adhesion molecules. In the migration assay, human peripheral blood mononuclear cells (PBMC) are placed into the donor compartment of the transwell setup. After 4 h of incubation time, the migrated cells are harvested from the receiver compartment, stained with fluorescent antibodies and counted using flow cytometry. (B) PBMCs were preincubated with S1P for 1.5 h and then transferred into the donor compartment on top of the EC monolayer. […] Data are shown as mean ± SD of 3 to 5 independent experiments.
(§1) Transwell migration assays were performed similarly as published previously. HMEC-1 cells were seeded at a density of 75,000 cells per well in transwell inserts. Three days after cell seeding, the medium was changed, and the cells were stimulated with 100 ng/mL TNF-α and 20 ng/mL IFN-γ for 16–18 h. On the day of the assay, cells were washed with migration medium (serum-free RPMI medium supplemented with 0.1% BSA) to remove residual cytokines and starved for at least 1 h at 37 °C in migration medium. PBMC were starved for at least 1.5 h in migration medium before addition to the EC. For S1P and lifitegrast-treated samples, the PBMC were preincubated for at least 1.5 h at 37 °C with the ligands before addition to the EC. Pepitem and other peptides were added onto the EC monolayer and preincubated for 15–30 min at 37 °C before the addition of the PBMC. 200,000 PBMC per well were added directly on top of the EC prestimulated with pepitem or other peptides to reach a final volume of 150 μL in the donor compartments. The receiver compartments of the wells were filled with 600 μL RPMI with 20% FBS. After 4 h of migration at 37 °C, the receiver compartment with the migrated cells was collected. The migrated cells were stained with the indicated antibodies: CD3-APC (clone: OKT3, lot: B400127), CD4-PE (clone: OKT4. lot: B379180), CD8-FITC (clone: HIT8a, lot: B370193) from Biolegend and CD3-VioGreen (clone: REA613, lot: 5240502518), CD45RO-FITC (clone: REA611, lot: 5240502519), CD4-PerCP-Vio700 (clone: REA623, lot: 5240506702), CXCR3 PE-Vio615 (clone: REA232, lot: 5240506722), CD196-APC (clone: REA190, lot: 5240506717), CD8-APC-Vio770 (clone: REA734, lot: 5240303993) and CD45RO-PEVio616 (clone: REA611, lot: 5231102514) from Miltenyi Biotec (Bergisch Gladbach, Germany) and counted using precision counting beads (Biolegend) on a CytoflexS flow cytometer (BeckmanCoulter). Data was analyzed using CytExpert (Version 2.4). T cells were gated as CD3^+ cells, T cell subsets were gated as CD4^+ (CD3^+, CD4^+), CD8^+ (CD3^+, CD8^+), memory CD4^+ (CD3^+, CD4^+, CD45RO^+), memory CD8^+ (CD3^+, CD8^+, CD45RO^+) and Th1 cells (CD3^+, CD4^+, CXCR3^+, CCR6^–).
(§2) Data were analyzed using GraphPad Prism software. EC50 values were calculated by three-parameter nonlinear regression analysis. For this, the data points were normalized to the number of migrated cells in untreated (buffer) control samples (100%), and the regression was fitted with the top constraint to 100 and the slope fixed to 1. Statistical significance is indicated in graphs as n.s. not significant, * p < 0.05; ** p < 0.01; *** p < 0.001. The statistical tests used are indicated in the respective figure captions.

[1] = system: CD4+ lymphocytes (CD3+, CD4+); assay type: cell-based, human; conditions: normalized to untreated control, mean ± SEM of 4-6 experiments
Protocol: as §1, §2

[2] = system: CD8+ lymphocytes (CD3+, CD8+); assay type: cell-based, human; conditions: normalized to untreated control, mean ± SEM of 4-6 experiments
Protocol: as §1, §2

[3] = system: memory CD4+ cells (CD3+, CD4+, CD45RO+); assay type: cell-based, human; conditions: normalized to untreated control, mean ± SEM of 4-6 experiments
Protocol: as §1, §2

[4] = system: memory CD8+ cells (CD3+, CD8+, CD45RO+); assay type: cell-based, human; conditions: normalized to untreated control, mean ± SEM of 4-6 experiments
Protocol: as §1, §2

Serum stability assay = assay type: in vitro ADME; conditions: human serum of healthy donors, lipids removed by centrifugation, 37 °C, peptide 30-60 μM from 10-fold stock in PBS, followed over 48 h, urea/TFA quench, analytical RP-HPLC peak area vs time 0, one-phase decay fit; mean ± SD, n = 2 (pepitem n = 5); read-out: Serum t 1/2 (converted)
Protocol: Stability of peptides in human serum was measured similarly to that previously described. In short, fresh blood from healthy donors was collected in serum collection tubes (Clot Activator Tube, Becton Dickinson, Plymouth, United Kingdom, […]) and incubated at 4 °C for 2 h to allow blood clotting. The serum was separated by centrifugation at 1000 × g for 10 min. To remove lipids from the serum, an additional centrifugation step was performed at 15,000 × g for 15 min at 4 °C, after which the serum was used for the stability assays. For this, the serum was prewarmed for 10 min at 37 °C before the addition of the test compounds. Peptides were prepared at a 10-fold concentration in PBS and diluted to a final concentration between 60 and 30 μM with the serum. The serum-peptide reaction mix was incubated at 37 °C, and 40 μL aliquots were taken at the indicated time points. To stop the reaction, samples were mixed with 40 μL of 6 M urea for 10 min on ice, followed by precipitation of serum proteins by the addition of 40 μL of 20% TFA and incubation for at least 10 min on ice. The precipitate was pelleted at 15,000 × g for 15 min, and 90 μL of the supernatant was freeze-dried. The dry material was resuspended in HPLC solvent A (0.1% TFA in ddH2O). Peptide quantification was performed using analytical HPLC. The remaining peptide relative to the starting point (time point 0) was calculated by peak integration to determine the area under the peak at the designated time points and further calculated in comparison to time point 0 min, which was set as 100%. To calculate the half-life of the peptides in human serum, data points were fitted with a one-phase decay equation.

half-life (Serum stability assay)	SMILES	% Inhibition of cell migration compared to control, CD3+ (CD3+ lymphocytes; 0.1 μM)	% Inhibition of cell migration compared to control, CD3+ (CD3+ lymphocytes; 1 μM)	effects on T-lymphocyte migration (in words) (CD3+ lymphocytes; two concentrations (0.1 and 1 μM), equal to untreated control)	% Inhibition of cell migration compared to control, CD4+ ([1]; 0.1 μM)	% Inhibition of cell migration compared to control, CD4+ ([1]; 1 μM)	% Inhibition of cell migration compared to control, CD8+ ([2]; 0.1 μM)	% Inhibition of cell migration compared to control, CD8+ ([2]; 1 μM)	% Inhibition of cell migration compared to control, Memory CD4+ ([3]; 0.1 μM)	% Inhibition of cell migration compared to control, Memory CD4+ ([3]; 1 μM)	% Inhibition of cell migration compared to control, Memory CD8+ ([4]; 0.1 μM)	% Inhibition of cell migration compared to control, Memory CD8+ ([4]; 1 μM)
15.4 ± 12.9 h	CCCC[C@@H]1NC(=O)[C@H](C(C)C)NC(=O)[C@H](CCCCN)NC(=O)[C@@H](NC(=O)[C@H](CCC(N)=O)NC(=O)[C@H](CCC(=O)O)NC(C)=O)CSSC[C@@H](C(=O)N[C@@H](CCC(=O)O)C(=O)N[C@@H](CCCCN)C(N)=O)NC(=O)[C@H](CC(N)=O)NC(=O)[C@H](CC(=O)O)NC(=O)[C@H](CC(C)C)NC(=O)[C@@H]2CSSC[C@H](NC1=O)C(=O)N[C@@H](Cc1ccc(O)cc1)C(=O)N[C@@H](C)C(=O)N[C@@H](CCC(N)=O)C(=O)N[C@@H](CCCNC(=N)N)C(=O)N[C@@H](Cc1c[nH]cn1)C(=O)N[C@@H](CO)C(=O)N[C@@H](CO)C(=O)N1CCC[C@H]1C(=O)N[C@@H](CCC(=O)O)C(=O)N[C@@H](CC(C)C)C(=O)N[C@@H](CC(C)C)C(=O)N[C@@H](CCCNC(=N)N)C(=O)N[C@@H](CCCNC(=N)N)C(=O)N2 [VhTI variant, reference compound] (Ac-EQCKV[Nle]CYAQRHSSPELLRRCLDNCEK-NH2; disulfide 3-25, 7-21)	–3.9 ± 7.0%	–5.2 ± 10.7%	no effects	–7.8 ± 9.4%	–6.7 ± 7.0%	1.6 ± 8.5%	–2.8 ± 15.8%	–3.5 ± 2.4%	–11.6 ± 13.2%	4.7 ± 7.4%	–11.6 ± 7.2%
25.8 ± 9.7 h	CC(=O)N[C@@H](CCC(=O)O)C(=O)N[C@@H](CCC(N)=O)C(=O)N[C@H]1CSSC[C@@H](C(=O)N[C@@H](CCC(=O)O)C(=O)N[C@@H](CCCCN)C(N)=O)NC(=O)[C@H](CC(N)=O)NC(=O)[C@H](CC(=O)O)NC(=O)[C@H](CC(C)C)NC(=O)[C@@H]2CSSC[C@H](NC(=O)[C@H]([C@@H](C)O)NC(=O)[C@H](C(C)C)NC(=O)[C@H](CO)NC1=O)C(=O)N[C@@H](CCC(=O)O)C(=O)N[C@@H](CCC(N)=O)C(=O)NCC(=O)N[C@@H](C)C(=O)N[C@@H](CCC(=O)O)C(=O)N[C@@H](CC(C)C)C(=O)N1CCC[C@H]1C(=O)N[C@@H](CO)C(=O)N[C@@H](CC(N)=O)C(=O)N[C@@H](CCC(=O)O)C(=O)N[C@@H](CCC(=O)O)C(=O)N[C@@H](CCCNC(=N)N)C(=O)N2 [VhTI-pep 6] (Ac-EQCSVTCEQGAELPSNEERCLDNCEK-NH2; disulfide 3-24, 7-20)	27.0 ± 9.7%	14.9 ± 11.6%	–	19.5 ± 9.9%	14.6 ± 8.7%	28.0 ± 8.2%	1.6 ± 7.8%	24.6 ± 11.6%	14.7 ± 7.6%	23.2 ± 4.3%	0.6 ± 6.1%
> 48 h	CCCC[C@@H]1NC(=O)[C@H](C(C)C)NC(=O)[C@H](CCCCN)NC(=O)[C@@H](NC(=O)[C@H](CCC(N)=O)NC(=O)[C@H](CCC(=O)O)NC(C)=O)CSSC[C@@H](C(=O)N[C@@H](CCC(=O)O)C(=O)N[C@@H](CCCCN)C(N)=O)NC(=O)[C@H](CC(N)=O)NC(=O)[C@H](CC(=O)O)NC(=O)[C@H](CC(C)C)NC(=O)[C@@H]2CSSC[C@H](NC1=O)C(=O)N[C@@H](Cc1ccc(O)cc1)C(=O)N[C@@H](CCC(N)=O)C(=O)NCC(=O)N[C@@H](C)C(=O)N[C@@H](CCC(=O)O)C(=O)N[C@@H](CC(C)C)C(=O)N[C@@H](CO)C(=O)N1CCC[C@H]1C(=O)N[C@@H](CCC(=O)O)C(=O)N[C@@H](CC(C)C)C(=O)N[C@@H](CC(C)C)C(=O)N[C@@H](CCCNC(=N)N)C(=O)N[C@@H](CCCNC(=N)N)C(=O)N2 [VhTI-pep 4] (Ac-EQCKV[Nle]CYQGAELSPELLRRCLDNCEK-NH2; disulfide 3-25, 7-21)	16.7 ± 11.0%	24.4 ± 8.0%	–	16.5 ± 7.3%	24.5 ± 5.9%	19.5 ± 20.2%	26.0 ± 10.7%	12.9 ± 11.0%	27.2 ± 7.8%	27.9 ± 3.8%	19.7 ± 7.9%
